The values that follow come from patent US20210163489A1, “PYRAZOLOPYRIMIDINE DERIVATIVES AND THE COMPOSITIONS AND METHODS OF TREATMENT REGARDING THE SAME” (NysnoBio Ireland DAC, priority 2016, published 2021).

A word on the EC50: it is the concentration giving half of the maximal effect.

“And” between values parts separate entries of the source, which are not always exact repeats. Equal values may be shown once.

The first assay deals with T1, Parkin ligase (Homo sapiens, UniProt O60260).
T1 construct: Enzyme: Parkin-His tagged 203 μM (10.5 mg/ml)
T1 sequence (O60260 1-465): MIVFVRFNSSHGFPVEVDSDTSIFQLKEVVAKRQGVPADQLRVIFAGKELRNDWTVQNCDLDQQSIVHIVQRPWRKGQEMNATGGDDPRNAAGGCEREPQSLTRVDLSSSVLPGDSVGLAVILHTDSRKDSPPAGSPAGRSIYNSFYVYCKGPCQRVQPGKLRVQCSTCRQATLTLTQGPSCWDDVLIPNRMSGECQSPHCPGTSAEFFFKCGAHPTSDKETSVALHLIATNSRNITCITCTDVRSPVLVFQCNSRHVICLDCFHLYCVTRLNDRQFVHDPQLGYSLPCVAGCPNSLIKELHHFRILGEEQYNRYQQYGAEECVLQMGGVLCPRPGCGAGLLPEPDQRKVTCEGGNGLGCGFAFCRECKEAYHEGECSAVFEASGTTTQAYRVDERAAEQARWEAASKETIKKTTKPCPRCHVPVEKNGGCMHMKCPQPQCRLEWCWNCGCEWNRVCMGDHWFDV
Nature of the assay: Activity-based probe assay using an ubiquitin vinyl sulfone probe (TR-FRET). The format is biochemical.
Settings: not given
The protocol:
An Ubiquitin vinyl sulfone probe can be used that irreversibly binds to the active site cysteine of Parkin ligase. Covalent attachment of the probe to the Parkin can be monitored by TR-FRET. Candidate activator compounds can be identified by increasing the activity of Parkin ligase due to an increase in TR-FRET signal. Screening for activating compounds can be distinguished from the controls as follows:
100% activation signal=Heat activated Parkin+100 nM control activator in DMSO. 0% activation signal=Heat activated Parkin+DMSO only. Parkin activators can be identified by an increase of the 0% activation signal TR-FRET signal.
• Assay Plate: White 384 well plate (Corning 3572) • Enzyme: Parkin-His tagged 203 μM (10.5 mg/ml) • Probe: Ubiquitin vinyl-sulfone (HA-Ub-VS Boston Biochem U-212) • DMSO: DMSO (Sigma cat # D4540-100ML) • Reaction Buffer: 50 mM HEPES (pH 8.5), 150 mM NaCl, 0.01% Tween 20, 0.1% BSA • Detection Buffer: 50 mM HEPES (pH 8.5), 150 mM NaCl, 0.01% Tween 20, 0.1% BSA, 800 mM KF • Detection Reagent A: 2.6 nM Anti-6HIS-Eu cryptate and 40 nM Anti-HA-XL665 in detection buffer • Eu cryptate: Anti-6HIS-Eu cryptate (CisBio 61HISKLA) • XL665: Anti-HA-XL665 (CisBio 610HAXLA) Enzyme Reaction (15 min Pre Incubation Parkin with Activator Only) • Parkin: 40 nM • HA-Ub-VS Probe: 70 nM • Activator/DMSO: 2× Activator/2% DMSO • Reaction time: 60 minutes • Temperature: 22° C. • Total volume: 10 μl reaction
• Take 10 μl of Enzyme Reaction above and add 10 μl detection Reagent A under the following conditions: • Reaction time: 60 minutes • Temperature: 22° C. • Total volume: 20 μl
Assay procedure (Using HP D-300 compound dispenser and Bravo for the operation):
1) Heat activate Parkin in reaction buffer (500 μl/1.5 ml tube: Eppendorf Thermomixer 5 minutes, 400 rpm at 58° C. and put on ice until needed). 2) Load assay plate wells with 4.8 μl 84.5 nM Parkin in reaction buffer by use of Bravo. 3) Deliver 0.2 μl 200× activator candidates in DMSO by use of HP D-300 compound dispenser. Highest 200× concentration=20 μm and then twofold dilutions. 4) Spin 1000 rpm, 2 minutes, at room temp. 5) Incubate plate for 15 minutes at room temp. 6) Add 5 μl 140 nM HA-Ub-VS Probe in reaction buffer by use of Bravo. 7) Spin 1000 rpm, 2 minutes, at room temp. 8) Incubate plate for 60 minutes at room temp. 9) Add 10 μl 2.6 nM Anti-6HIS-Eu cryptate and 40 nM Anti-HA-XL665 in detection buffer. 10) Spin 1000 rpm, 2 minutes, at room temp. 11) Incubate plate for 60 minutes at room temp. 12) Read plates on Perkin Elmer Envision instrument with the following parameters:
LANCE dual laser protocol loaded into the Envision® software
Top Mirror: LANCE/DELFIA Duel/Bias (Bar code 446) Emission Filter: APC 665 EM (Bar code 205) 2nd Emission Filter: Europium 615 EM (Bar code 203) Read […] (channel 1) and 615 nm (channel 2) wavelengths on Envision®
Data Analysis: The Data can be read in CSV files. There are two tables in those CSV files, which are the values of 655 nm (channel 1) and 615 nm (channel 2) wavelengths respectively. The data is converted to an HTRF Ratio=(Channel 1/Channel 2)*10,000
The average of all the 0 uM controls (DMSO only)=BKGD (Background—0% activation). Subtract BKGD from each HTRF Ratio value=HTRF-BKGD. The average of all the […] 100 nM control activator in DMSO controls=Max (100% activation). The following equation is then used to calculate % Activation for each well/candidate as follows: % Activation=(HTRF−BKGD/Max)*100.
Graphpad Prisim was used with Transform X values: X=Log(X) and nonlinear regression (dose-response-stimulation): Log(agonist) vs Response—variable slope (four parameters) with constrains set to Bottom=0 and Top=100.
In general terms: TR-FRET usually uses a lanthanide donor and a delayed reading to cut background.
`Cc1nc2c(-c3ccccc3)c(C)nn2c(S)c1Cc1ccccc1` [Compound A, 6-benzyl-2,5-dimethyl-3-phenylpyrazolo[1,5-a]pyrimidine-7-thiol]: the “Parkin Ligase reaction with the Activity-based Ubiquitin vinyl sulfone probe” value was “increases”.

As to `Cc1cc(S)n2ncc(-c3ccc(F)cc3)c2n1` [Compound L, 3-(4-fluorophenyl)-5-methylpyrazolo[1,5-a]pyrimidine-7-thiol], the “Parkin Ligase reaction with the Activity-based Ubiquitin vinyl sulfone probe” value is on record as “increases”.

The same assay, now with this note: activation of heat activated Parkin, HA-Ub-VS probe; read-out: Probe Assay EC50 (μM) [Example 2].
Regarding `Cc1nc2c(-c3ccccc3)c(C)nn2c(S)c1Cc1ccccc1` [Compound A, 6-benzyl-2,5-dimethyl-3-phenylpyrazolo[1,5-a]pyrimidine-7-thiol], the EC50 was 0.4 µM and 3.1 µM and 0.7 µM.

As for `Cc1cc(C)c2c(n1)nn1c(S)c(Cc3ccccc3)c(C)nc21` [RR], the EC50 was found to be 27.3 µM.

`Cc1nc2c(-c3ccccc3)c(C)nn2c(S)c1Cc1ccncc1` [Compound AA, 2,5-dimethyl-3-phenyl-6-(4-pyridylmethyl)pyrazolo[1,5-a]pyrimidine-7-thiol]: the EC50 came out at 10.9 µM.

As for `Cc1nc2c(-c3ccccc3)c(C)nn2c(O)c1Cc1ccccc1` [T], the EC50 stood at 49.1 µM.

In the case of `Cc1nc2c(-c3ccccc3)c(C)nn2cc1Cc1ccccc1` [QQ], the EC50 is more than 100 µM.

On to `Cc1cc2nc(C)c(Cc3ccccc3)c(O)n2n1` [Q], for which the EC50 was more than 100 µM.

With `CC(C)(C)c1cc(O)n2ncc(-c3ccccc3)c2n1` [J], the EC50 worked out at 35.4 µM.

For `Cc1nc2c(-c3ccncc3)c(C)nn2c(S)c1Cc1ccccc1` [MM], the EC50 worked out at 7.6 µM.

`Cc1nc2c(C(F)(F)F)c(C)nn2c(S)c1Cc1ccccc1` [LL]: the EC50 is 34.1 µM.

On to `COc1ccc(-c2cnn3c(O)cc(C)nc23)cc1` [Compound J3], for which the EC50 was more than 100 µM.

With `Cc1cc(S)n2ncc(-c3cnn(C)c3)c2n1` [VV], the EC50 was more than 100 µM.

For `Cc1nn2c(S)c3c(nc2c1-c1ccccc1)COC3` [XX], the EC50 came to 55.6 µM.

`Cc1nn2c(S)c(Cc3ccccc3)cnc2c1-c1ccccc1` [Compound DD, 6-benzyl-2-methyl-3-phenyl-pyrazolo[1,5-a]pyrimidin-7-thiol]: the EC50 came to 6.5 µM.

For the molecule `Cc1ccc(-c2cnn3c(O)cc(C)nc23)cc1` [Compound H3], the EC50 was 51 µM.

Regarding `Cc1nn2c(S)c(CCc3ccccc3)cnc2c1-c1ccccc1` [Compound E3], the EC50 is 4 µM.

Turning to `Cc1cc(S)n2nc(C)c(-c3ccc(Cl)cc3)c2n1` [N], the EC50 was more than 100 µM.

In the case of `CCCc1cc(S)n2nc(C)c(-c3ccccc3)c2n1` [Compound B], the EC50 is more than 100 µM.

In the case of `Cc1nc2c(-c3ccccn3)c(C)nn2c(O)c1Cc1ccccc1` [FF], the EC50 was 17.8 µM.

As to `Cc1nc2c(C(F)(F)F)c(C)nn2c(O)c1Cc1ccccc1` [JJ], the EC50 is more than 100 µM.

As for `COc1ccc(-c2cnn3c(S)cc(C)nc23)cc1` [SS], the EC50 stood at 8.9 µM.

For `Cc1cc2nc(C)c(Cc3ccc(Cl)cc3)c(S)n2n1` [Compound R, 6-[(4-chlorophenyl)methyl]-2,5-dimethyl-pyrazolo[1,5-a]pyrimidine-7-thiol], the EC50 was 18.2 µM.

As to `Cc1nc2c(-c3ccccc3)c(C)nn2c(O)c1Cc1ccccn1` [Compound Y, 2,5-dimethyl-3-phenyl-6-(2-pyridylmethyl)pyrazolo[1,5-a]pyrimidin-7-ol], the EC50 was more than 100 µM.

For the molecule `CC(C)(C)c1cc(O)n2ncc(-c3ccc(Cl)cc3)c2n1` [Compound G], the EC50 came out at 53.5 µM.

In the case of `Cc1nc2c(-c3ccccc3)c(C)nn2c(S)c1Cc1ccccn1` [Compound BB, 2,5-dimethyl-3-phenyl-6-(2-pyridylmethyl)pyrazolo[1,5-a]pyrimidine-7-thiol], the EC50 worked out at 14.9 µM.

As to `Cc1cc2nc(C)c(Cc3ccc(Cl)cc3)c(O)n2n1` [Compound P, 6-[(4-chlorophenyl)methyl]-2,5-dimethyl-pyrazolo[1,5-a]pyrimidin-7-ol], the EC50 amounted to 61.4 µM.

For `Cc1nc2c(-c3cccnc3)c(C)nn2c(S)c1Cc1ccccc1` [Compound D3], the EC50 amounted to 24 µM.

Regarding `Oc1c(Cc2ccccc2)cnc2c(-c3ccccc3)cnn12` [Compound W, 6-benzyl-3-phenyl-pyrazolo[1,5-a]pyrimidin-7-ol], the concentration giving a half-maximal response (EC50) was more than 100 µM.

For the molecule `CCc1nn2c(S)cc(C)nc2c1-c1ccc(F)cc1` [Compound I], the EC50 was more than 100 µM.

For `CNc1c2c(nc3c(-c4ccccc4)c(C)nn13)CCN(C)C2` [YY], the concentration giving a half-maximal response (EC50) is more than 100 µM.

With `Cc1nn2c(S)c(CC(C)C)cnc2c1-c1ccccc1` [Compound G3], the EC50 was 15 µM.

`Cc1nc2c(C#N)c(C)nn2c(S)c1Cc1ccccc1` [OO]: the EC50 was more than 100 µM.

In the case of `Cc1nn2c(O)c3c(nc2c1-c1ccccc1)CCN(C)C3` [Compound K3], the 50% effective concentration (EC50) was more than 100 µM.

Take `Cc1ccc(-c2cnn3c(O)c4c(nc23)CN(C)CC4)cc1` [Compound P3]: the concentration for a half-maximal effect (EC50) was more than 100 µM.

Regarding `Cc1cc2nc(C)c(Cc3ccccc3)c(S)n2n1` [S], the EC50 is 27.9 µM.

Regarding `Cc1ccc(-c2cnn3c(S)c4c(nc23)CN(C)CC4)cc1` [Compound S3], the EC50 was 6 µM.

On to `Cc1nn2c(O)c(Cc3ccccc3)cnc2c1-c1ccccc1` [Compound V, 6-benzyl-2-methyl-3-phenyl-pyrazolo[1,5-a]pyrimidin-7-ol], for which the EC50 was more than 100 µM.

For the molecule `COc1ccc(Cn2ccc(-c3cnn4c(S)cc(C)nc34)cc2=O)cc1` [Compound B3], the EC50 worked out at 46 µM.

On to `Cc1cc(S)n2ncc(-c3cccc(N(C)C)c3)c2n1` [UU], for which the EC50 came to 10.7 µM.

Take `Cc1cc(O)n2ncc(-c3cccc(N(C)C)c3)c2n1` [Compound M3]: the concentration giving a half-maximal response (EC50) turned out to be 96.3 µM.

`Cc1nc2c(-c3ccccc3)cnn2c(O)c1Cc1ccccc1` [Compound U, 6-benzyl-5-methyl-3-phenyl-pyrazolo[1,5-a]pyrimidin-7-ol]: the EC50 was determined as 8.73 µM.

On to `Cc1ccc(-c2cnn3c(S)cc(C)nc23)cc1` [TT], for which the EC50 was found to be 6.8 µM.

As for `Cc1cc(S)n2nc(C)c(-c3ccccc3)c2n1` [O], the EC50 is more than 100 µM.

On to `Cc1cc(S)n2ncc(-c3ccc(F)cc3)c2n1` [Compound L, 3-(4-fluorophenyl)-5-methylpyrazolo[1,5-a]pyrimidine-7-thiol], for which the EC50 stood at 18 µM.

As to `Cc1nn2c(O)c(CC(C)C)cnc2c1-c1ccccc1` [Compound I3], the EC50 was more than 100 µM.

Turning to `Cc1nc2c(C(=O)N(C)C)c(C)nn2c(S)c1Cc1ccccc1` [II], the EC50 is more than 100 µM.

Take `Cc1cc(O)n2nc(C)c(-c3ccc(Cl)cc3)c2n1` [M]: the EC50 was more than 100 µM.

As for `Cc1nc2c(-c3ccccn3)c(C)nn2c(S)c1Cc1ccccc1` [HH], the EC50 was 74.2 µM.

On to `Cc1nc2c(-c3ccccc3)cnn2c(S)c1Cc1ccccc1` [Compound CC, 6-benzyl-5-methyl-3-phenyl-pyrazolo[1,5-a]pyrimidin-7-thiol], for which the EC50 came to 5.8 µM.
